Experimental findings from patent US9708336B2, “Metallo-beta-lactamase inhibitors” (priority 2014, dated 2017) are described below.

One assay has as its target NDM-1 (Klebsiella pneumoniae, UniProt C7C422). Put plainly: biochemical. In kind it is biochemical. As to conditions: read-out: NDM-1 IC50.
Assay [1] deals with Klebsiella pneumoniae expressing VIM-1 (IHMA599644). The assay is described as follows: Antibiotic potentiation activity: synergistic concentration (MITC95) with imipenem, OD600 growth. The format is cell-based. As to conditions: for Klebsiella pneumoniae expressing VIM-1 (IHMA 599644) MITC95: concentration giving 95% inhibition of bacterial growth; for Klebsiella pneumoniae MITC95: Klebsiella pneumoniae expressing VIM-1 (IHMA599644), 95% growth inhibition. The procedure, abridged:
(§1)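 CLB30005 was precultured on Mueller Hinton agar with 8 ug/ml imipenem, the other strains on trypticase soy agar with 5% sheep blood, overnight at 35 °C. Saline suspensions diluted 1:100 in 1.1× CAMHB received compound and 4 μg/ml imipenem, then 22–24 h at 35 °C before absorbance reading.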

The test system of assay [2] is Serratia marcescens expressing IMP-1 (CL5741). The assay is described as above. In kind it is cell-based. Conditions: for Serratia marcescens expressing IMP-1 (CL5741) MITC95: concentration giving 95% inhibition of bacterial growth; for Serratia marcescens MITC95: Serratia marcescens expressing IMP-1 (CL5741), 95% growth inhibition. In a few lines:
as §1

The test system of assay [3] is Escherichia coli expressing NDM-1 (CLB30016). The description is as above. The format is cell-based. As to conditions: for Escherichia coli expressing NDM-1 (CLB 30016) MITC95: concentration giving 95% inhibition of bacterial growth; for Escherichia coli MITC95: Escherichia coli expressing NDM-1 (CLB30016), 95% growth inhibition. In a few lines: as §1
Assay [4] has as its system Escherichia coli expressing NDM-1 (CLB30005). The assay is described as above. Conditions: for Escherichia coli expressing NDM-1 (CLB 30005) MITC95: concentration giving 95% inhibition of bacterial growth; for Escherichia coli MITC95: Escherichia coli expressing NDM-1 (CLB30005), 95% growth inhibition. In kind it is cell-based. In a few lines:
as §1

A further assay concerns the target VIM-1 (Pseudomonas aeruginosa (strain ATCC 15692 / DSM 22644 / CIP 104116 / JCM 14847 / LMG 12228 / 1C / PRS 101 / PAO1), UniProt A0A0F7KYQ8). Put plainly: Enzyme activity: determination of IC50, fluorescence assay with CCF2-FA substrate (VIM-1). In kind it is biochemical.
Another assay concerns the target IMP-1 (Serratia marcescens, UniProt P52699). Put plainly: biochemical. In kind it is biochemical. As to conditions: read-out: IMP-1 IC50.
Where [5] appears, read: fluorescence assay with CCF2-FA substrate.
The mark [6] stands for this setting: fluorescence assay with CCF2-FA substrate, read-out: VIM-1 IC50.
[7] abbreviates: VIM-1 IC50, fluorescence assay with CCF2-FA substrate.
Setting [8] is: NDM-1 enzyme, CCF2-FA fluorescence assay.
The mark [9] stands for this setting: IMP-1 enzyme, CCF2-FA fluorescence assay.
Where [10] appears, read: VIM-1 enzyme, CCF2-FA fluorescence assay, read-out: VIM-1 IC50.
Setting [11] is: VIM-1 IC50, VIM-1 enzyme, CCF2-FA fluorescence assay.

As usually defined, the IC50 is the concentration at which inhibition is half-maximal.

Each structure is given as a SMILES string. Where two headings read alike, the source gives them in different places.

Sequence of IMP-1 (P52699 whole entry, looked up): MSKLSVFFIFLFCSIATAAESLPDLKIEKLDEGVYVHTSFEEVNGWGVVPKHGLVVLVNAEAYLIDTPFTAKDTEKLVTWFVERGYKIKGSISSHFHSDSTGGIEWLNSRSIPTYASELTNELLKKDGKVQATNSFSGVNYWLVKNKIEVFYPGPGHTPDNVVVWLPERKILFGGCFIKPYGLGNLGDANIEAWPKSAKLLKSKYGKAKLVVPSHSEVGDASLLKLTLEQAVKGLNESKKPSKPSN
Sequence of NDM-1 (C7C422 whole entry, looked up, species assumed): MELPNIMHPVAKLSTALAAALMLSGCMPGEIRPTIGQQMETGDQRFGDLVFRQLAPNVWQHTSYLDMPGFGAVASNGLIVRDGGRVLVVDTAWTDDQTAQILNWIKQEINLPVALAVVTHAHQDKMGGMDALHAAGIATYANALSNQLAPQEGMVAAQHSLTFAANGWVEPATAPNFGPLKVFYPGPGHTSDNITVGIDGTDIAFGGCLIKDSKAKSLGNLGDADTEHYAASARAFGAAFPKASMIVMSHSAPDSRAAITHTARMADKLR

For the compound `Cc1ccc(-c2cccc(S(N)(=O)=O)c2-c2nnn[nH]2)cc1` [Example 1, 4′-Methyl-2-(1H-tetrazol-5-yl)-[1,1′-biphenyl]-3-sulfonamide], the results for the IC50 on NDM-1 (setting [5]), at VIM-1 (setting [6]) and at IMP-1 (setting [5]) were 3.77 nM, 57.6 nM and 64.8 nM, respectively. Moreover, the “Klebsiella pneumoniae expressing VIM-1 (IHMA 599644) MITC95” value in assay [1] was 123.3 µM. Besides, the “Serratia marcescens expressing IMP-1 (CL5741) MITC95” value in assay [2] was 11.96 µM. Also, the “Escherichia coli expressing NDM-1 (CLB 30016) MITC95” value in assay [3] came out at 0.7595 µM. Further, the “Escherichia coli expressing NDM-1 (CLB 30005) MITC95” value in assay [4] is 1.489 µM.
Regarding `CN(C)CCCOc1ccc(-c2cccc(S(N)(=O)=O)c2-c2nn[nH]n2)cn1` [Example 30, 3-(6-(3-(dimethylamino)propoxy)pyridin-3-yl)-2-(2H-tetrazol-5-yl)benzenesulfonamide], the concentration for half-maximal inhibition (IC50) on NDM-1 (setting [5]) was found to be 132 nM; against VIM-1 (setting [7]) it was 875 nM; on IMP-1 (setting [5]), 1670 nM. Further, in assay [1], the “Klebsiella pneumoniae expressing VIM-1 (IHMA 599644) MITC95” value is 200 µM. The “Serratia marcescens expressing IMP-1 (CL5741) MITC95” value in assay [2] is 50 µM. Also, in assay [3], the “Escherichia coli expressing NDM-1 (CLB 30016) MITC95” value stood at 1.563 µM. In addition, in assay [4], the “Escherichia coli expressing NDM-1 (CLB 30005) MITC95” value was 3.125 µM.
Turning to `NS(=O)(=O)c1cccc(-c2cncnc2)c1-c1nn[nH]n1` [Example 42, 3-pyrimidin-5-yl-2-(2H-tetrazol-5-yl)benzenesulfonamide], the IC50 came out at 543 nM at NDM-1 (setting [5]), 9960 nM at VIM-1 (setting [6]) and 10500 nM on IMP-1 (setting [5]). The “Klebsiella pneumoniae expressing VIM-1 (IHMA 599644) MITC95” value in assay [1] is >200 µM. In assay [2], the “Serratia marcescens expressing IMP-1 (CL5741) MITC95” value amounted to 200 µM. Besides, in assay [3], the “Escherichia coli expressing NDM-1 (CLB 30016) MITC95” value came to 0.7813 µM. For the same compound, in assay [4], the “Escherichia coli expressing NDM-1 (CLB 30005) MITC95” value amounted to 1.563 µM.
Consider `CS(=O)(=O)Nc1ccc(-c2cccc(S(N)(=O)=O)c2-c2nn[nH]n2)cc1` [Example 82, 4′-[(methylsulfonyl)amino]-2-(2H-tetrazol-5-yl)biphenyl-3-sulfonamide], for which the concentration for half-maximal inhibition (IC50) at NDM-1 (setting [5]) is 1.43 nM; at VIM-1 (setting [7]) it was 7.79 nM; on IMP-1 (setting [5]), 22.2 nM. In assay [1], the “Klebsiella pneumoniae expressing VIM-1 (IHMA 599644) MITC95” value was determined as 12.5 µM. The “Serratia marcescens expressing IMP-1 (CL5741) MITC95” value in assay [2] came to 3.125 µM. In assay [3], the “Escherichia coli expressing NDM-1 (CLB 30016) MITC95” value is 0.5859 µM. Besides, in assay [4], the “Escherichia coli expressing NDM-1 (CLB 30005) MITC95” value turned out to be 1.953 µM.
On to `NS(=O)(=O)c1cccc(-c2cnn3ccccc23)c1-c1nn[nH]n1` [Example 98, 3-pyrazolo[1,5-a]pyridin-3-yl-2-(2H-tetrazol-5-yl)benzenesulfonamide], for which the IC50 at NDM-1 (setting [5]) was determined as 2.7 nM; on VIM-1 (setting [7]), 29.4 nM; at IMP-1 (setting [5]), 320 nM. For the same compound, the “Klebsiella pneumoniae expressing VIM-1 (IHMA 599644) MITC95” value in assay [1] was 18.75 µM. Besides, the “Serratia marcescens expressing IMP-1 (CL5741) MITC95” value in assay [2] amounted to 7.813 µM. For the same compound, the “Escherichia coli expressing NDM-1 (CLB 30016) MITC95” value in assay [3] was 0.7813 µM. In addition, in assay [4], the “Escherichia coli expressing NDM-1 (CLB 30005) MITC95” value stood at 0.9766 µM.
Consider `NS(=O)(=O)c1cccc(-c2ccc(C3CCNC3)cc2)c1-c1nnn[nH]1` (stereo not drawn) [Example 180, 4′-(pyrrolidin-3-yl)-2-(1H-tetrazol-5-yl)-[1,1′-biphenyl]-3-sulfonamide], for which the concentration for half-maximal inhibition (IC50) on NDM-1 (setting [5]) is 9.91 nM; on VIM-1 (setting [6]), 22.4 nM; on IMP-1 (setting [5]), 113 nM. In addition, in assay [1], the “Klebsiella pneumoniae expressing VIM-1 (IHMA 599644) MITC95” value came out at 4.688 µM. Moreover, the “Serratia marcescens expressing IMP-1 (CL5741) MITC95” value in assay [2] worked out at 3.125 µM. Besides, the “Escherichia coli expressing NDM-1 (CLB 30016) MITC95” value in assay [3] came to 0.5 µM. The “Escherichia coli expressing NDM-1 (CLB 30005) MITC95” value in assay [4] turned out to be 0.3906 µM.
As to `NS(=O)(=O)c1nccc(-c2ccc(CO)cc2)c1-c1nnn[nH]1` [Example 181, 4-(4-(Hydroxymethyl)phenyl)-3-(1H-tetrazol-5-yl)pyridine-2-sulfonamide], the half-inhibitory concentration (IC50) on NDM-1 (setting [5]) came out at 27.9 nM; at VIM-1 (setting [6]) it was 184 nM; on IMP-1 (setting [5]), 375 nM. In addition, in assay [1], the “Klebsiella pneumoniae expressing VIM-1 (IHMA 599644) MITC95” value was determined as 18.75 µM. Further, the “Serratia marcescens expressing IMP-1 (CL5741) MITC95” value in assay [2] amounted to 12.5 µM. Further, in assay [3], the “Escherichia coli expressing NDM-1 (CLB 30016) MITC95” value was 0.6727 µM. In addition, the “Escherichia coli expressing NDM-1 (CLB 30005) MITC95” value in assay [4] was 1.953 µM.
Turning to `NS(=O)(=O)c1nccc(-c2ccccc2)c1-c1nn[nH]n1` [Example 207, 4-phenyl-3-(2H-tetrazol-5-yl)pyridine-2-sulfonamide], the IC50 on NDM-1 (setting [5]) was 35.1 nM; at VIM-1 (setting [6]), 201 nM; on IMP-1 (setting [5]) it was 373 nM. Further, in assay [3], the “Escherichia coli expressing NDM-1 (CLB 30016) MITC95” value turned out to be 0.5 µM. In assay [4], the “Escherichia coli expressing NDM-1 (CLB 30005) MITC95” value came out at 0.1953 µM.
For the compound `NS(=O)(=O)c1cccc(-c2cnc3[nH]ncc3c2)c1-c1nn[nH]n1` [Example 309, 3-(1H-pyrazolo[3,4-b]pyridin-5-yl)-2-(2H-tetrazol-5-yl)benzenesulfonamide], the IC50 at NDM-1 (setting [8]) is 1.35 nM; at IMP-1 (setting [9]), 326 nM. The “Klebsiella pneumoniae MITC95” value in assay [1] was 5.729 µM. Moreover, the “Serratia marcescens MITC95” value in assay [2] was found to be 8.333 µM. The “Escherichia coli MITC95” value in assay [3] was 0.7813 µM; in assay [4], 0.3906 µM.
For the compound `Nc1ncc(-c2cccc(S(N)(=O)=O)c2-c2nn[nH]n2)cc1F` [Example 314, 3-(6-amino-5-fluoropyridin-3-yl)-2-(2H-tetrazol-5-yl)benzenesulfonamide], the half-maximal inhibitory concentration (IC50) was 3.65 nM on NDM-1 (setting [8]) and 292 nM on IMP-1 (setting [9]). In assay [1], the “Klebsiella pneumoniae MITC95” value is 3.906 µM. Also, the “Serratia marcescens MITC95” value in assay [2] was 5.469 µM. For the same compound, the results for the “Escherichia coli MITC95” value in assay [3] and in assay [4] were 0.3906 µM and 0.1953 µM, respectively.
Regarding `NS(=O)(=O)c1cccc(-c2ccccc2O)c1-c1nn[nH]n1` [Example 326, 2′-hydroxy-2-(2H-tetrazol-5-yl)-[1,1′-biphenyl]-3-sulfonamide], the IC50 was found to be 3.65 nM on NDM-1 (setting [8]), 136 nM at VIM-1 (setting [10]) and 370 nM on IMP-1 (setting [9]). For the same compound, the “Klebsiella pneumoniae MITC95” value in assay [1] was 37.5 µM. Also, in assay [2], the “Serratia marcescens MITC95” value worked out at 18.75 µM. In addition, in assay [4], the “Escherichia coli MITC95” value worked out at 3.32 µM.
`CN(C)Cc1ccc(-c2cccc(S(N)(=O)=O)c2-c2nnn[nH]2)cc1` [Example 327, 4′-((Dimethylamino)methyl)-2-(1H-tetrazol-5-yl)-[1,1′-biphenyl]-3-sulfonamide]: the values for the IC50 on NDM-1 (setting [8]), on VIM-1 (setting [11]) and on IMP-1 (setting [9]) were 37.7 nM, 216 nM and 534 nM, respectively. The “Klebsiella pneumoniae MITC95” value in assay [1] came to 100 µM. The “Serratia marcescens MITC95” value in assay [2] worked out at 12.5 µM. Moreover, the “Escherichia coli MITC95” value in assay [4] stood at 0.7813 µM.
As for `CCOCc1ccc(-c2cccc(S(N)(=O)=O)c2-c2nnn[nH]2)cc1` [Example 397, 4′-(Ethoxymethyl)-2-(1H-tetrazol-5-yl)-[1,1′-biphenyl]-3-sulfonamide], the IC50 at NDM-1 (setting [8]) is 3.93 nM; against VIM-1 (setting [11]) it was 246 nM; at IMP-1 (setting [9]), 37.3 nM. The “Klebsiella pneumoniae MITC95” value in assay [1] was >200 µM. In addition, the “Serratia marcescens MITC95” value in assay [2] amounted to 9.375 µM. Moreover, in assay [4], the “Escherichia coli MITC95” value came out at 3.906 µM.
For `Cc1ccc(-c2cccc(S(N)(=O)=O)c2-c2nnn[nH]2)nc1` [Example 398, 3-(5-Methylpyridin-2-yl)-2-(1H-tetrazol-5-yl)benzenesulfonamide], the IC50 at NDM-1 (setting [8]) worked out at 43 nM; on VIM-1 (setting [10]), 312 nM; on IMP-1 (setting [9]) it was 1210 nM. Further, in assay [1], the “Klebsiella pneumoniae MITC95” value was found to be 100 µM. Moreover, in assay [2], the “Serratia marcescens MITC95” value was 50 µM. The “Escherichia coli MITC95” value in assay [4] came out at 1.563 µM.
